Laboratory results as given in PubChem BioAssay AID651642 (Sanford-Burnham Center for Chemical Genomics, 2012).

How the values were obtained:
HL-1 = test: protection of cardiomyocytes from stress damage, SAR follow-up, cell-based, panel, H9c2 and HL-1, H2O2, 2-deoxyglucose, ATP luminescence (AID 651642)
H9c2 = test: as above
[1] = H9c2/HL-1 cardiomyocyte 2-deoxyglucose damage, mean of runs, with 2-deoxyglucose, mean IC50 across panel
[2] = H9c2/HL-1 cardiomyocyte 2-deoxyglucose damage, run 1, with 2-deoxyglucose
[3] = H9c2/HL-1 cardiomyocyte 2-deoxyglucose damage, run 2, with 2-deoxyglucose
[4] = H9c2/HL-1 cardiomyocyte 2-deoxyglucose damage, run 3, with 2-deoxyglucose
[5] = H9c2/HL-1 cardiomyocyte 2-deoxyglucose damage, run 4, with 2-deoxyglucose
[6] = H9c2/HL-1 cardiomyocyte H2O2 oxidative damage, mean of runs, with H2O2, mean IC50 across panel
[7] = H9c2/HL-1 cardiomyocyte H2O2 oxidative damage, run 1, with H2O2
[8] = H9c2/HL-1 cardiomyocyte H2O2 oxidative damage, run 2, with H2O2
[9] = H9c2/HL-1 cardiomyocyte H2O2 oxidative damage, run 3, with H2O2
[10] = H9c2/HL-1 cardiomyocyte H2O2 oxidative damage, run 4, with H2O2

SMILES | IC50 (HL-1; [1]) [µM] | IC50 (HL-1; [2]) [µM] | IC50 (HL-1; [3]) [µM] | IC50 (HL-1; [4]) [µM] | IC50 (HL-1; [5]) [µM] | IC50 (HL-1; [6]) [µM] | IC50 (HL-1; [7]) [µM] | IC50 (HL-1; [8]) [µM] | IC50 (HL-1; [9]) [µM] | IC50 (HL-1; [10]) [µM] | IC50 (H9c2; [1]) [µM] | IC50 (H9c2; [2]) [µM] | IC50 (H9c2; [3]) [µM] | IC50 (H9c2; [4]) [µM] | IC50 (H9c2; [5]) [µM] | IC50 (H9c2; [6]) [µM] | IC50 (H9c2; [7]) [µM] | IC50 (H9c2; [8]) [µM] | IC50 (H9c2; [9]) [µM] | IC50 (H9c2; [10]) [µM]
CCOC(=O)c1cccc(NC(=O)CNC(=O)c2cc(-c3cc(OC)c(OC)c(OC)c3)nc3ccc(F)cc23)c1 | 2.58 | 1.56 | 1.76 | 3.27 | 3.74 | 2.38 | 1.7 | 3.23 | 1.98 | 2.6 | 3.79 | 4.83 | 5.33 | 1.98 | 3.04 | 0.688 | 0.838 | 0.849 | 0.526 | 0.541
COc1ccc2c(c1OC)C(=O)N1c3ccccc3C(=O)N(Cc3ccc(C)cc3C)C21 (stereo not given) | > 79 | > 79 | > 79 | > 79 | > 79 |  | > 79 | > 79 | > 79 | > 79 | > 79 | > 79 | > 79 | > 79 | > 79 | > 79 | > 79 | > 79 | > 79 | > 79
COc1ccc2nc(-c3cc(OC)c(OC)c(OC)c3)cc(C(=O)Nc3cccc(C(C)=O)c3)c2c1 |  | 6.04 | 6.84 | > 79 | > 79 |  | > 79 | > 79 | 3.8 | 8.57 |  | > 79 | 27.9 | > 79 | > 79 |  | 5.31 | 8.25 | > 79 | 2.94
CCOC(=O)c1cccc(NC(=O)CNC(=O)c2cc(-c3cc(OC)c(OC)c(OC)c3)nc3ccccc23)c1 |  | 2.08 | 2.42 | > 79 | > 79 |  | 9.1 | 17.9 | > 79 | > 79 |  | 8.17 | 9.67 | > 79 | > 79 |  | 2.07 | 2.14 | > 79 | > 79
COc1cc(-c2cc(C(=O)Nc3cccc(-c4nn[nH]n4)c3)c3ccccc3n2)cc(OC)c1OC | 47.5 | 27.6 | 57.3 | 48.6 | 56.7 | 25 | 26.1 | 28.8 | 15.2 | 29.8 | > 79 | > 79 | > 79 | > 79 | > 79 | 20.9 | 24.2 | 24.3 | 16.4 | 18.6
COc1cc(-c2cc(C(=O)Nc3cccc(C#N)c3)c3ccccc3n2)cc(OC)c1OC |  | 5.37 | 7.28 | > 79 | > 79 |  | > 79 | > 79 | 6.09 | 11.1 | > 79 | > 79 | > 79 | > 79 | > 79 |  | 7.93 | 8.58 | > 79 | 6.2
COc1cc(-c2cc(C(=O)NCC(=O)Nc3ccc(C(C)=O)cc3)c3ccccc3n2)cc(OC)c1OC |  | > 79 | > 79 | 6.28 | 7.65 |  | > 79 | > 79 | 7.43 | 9.32 |  | > 79 | > 79 | 6.74 | 8.41 |  | > 79 | > 79 | 1.62 | 1.71
COc1cc(-c2cc(C(=O)NCC(=O)Nc3cccc(C(C)=O)c3)c3cccc(Cl)c3n2)cc(OC)c1OC | 6.58 | 5.45 | 9.03 | 5.38 | 6.47 |  | > 79 | > 79 | 4.06 | 6.82 |  | > 79 | 32.2 | 7.32 | 8.12 | 0.651 | 2.72 | 3.44 | 2.56 | 3.46
CCOC(=O)c1cccc(NC(=O)CNC(=O)c2cc(-c3cc(OC)c(OC)c(OC)c3)nc3ccc(OC)cc23)c1 | 2.3 | 1.59 | 1.73 | 2.93 | 2.94 | 3.57 | 3.75 | 3.81 | 2.62 | 4.12 | 3.16 | 4.42 | 4.8 | 1.68 | 1.75 | 0.739 | 0.965 | 0.974 | 0.483 | 0.534
COc1ccc2c(c1OC)C(=O)N1c3ccccc3C(=O)N(Cc3ccccc3Cl)C21 (stereo not given) | 2.3 | 1.05 | 1.56 | 2.66 | 3.94 | > 79 | > 79 | > 79 | > 79 | > 79 | 15.8 | 17 | 20.1 | 12 | 14.2 |  | 0.558 | 0.745 | > 79 | > 79
COc1ccc2c(c1OC)C(=O)N1c3ccccc3C(=O)N(Cc3cccc(Br)c3)C21 (stereo not given) | 7.49 | 5.07 | 5.69 | 7.9 | 11.3 | > 79 | > 79 | > 79 | > 79 | > 79 | > 79 | > 79 | > 79 | > 79 | > 79 |  | 2.22 | 3.79 | > 79 | > 79
CCOC(=O)c1cccc(NC(=O)CNC(=O)c2cc(-c3cc(OC)c(OC)c(OC)c3)nc3c(Cl)cccc23)c1 |  | 3.56 | 5.79 | > 79 | > 79 |  | > 79 | > 79 | 4.99 | 15.4 | > 79 | > 79 | > 79 | > 79 | > 79 |  | 5.52 | 8.8 | > 79 | 3.36
COc1ccc2c(c1OC)C(=O)N1c3ccccc3C(=O)N(Cc3c(Cl)cccc3Cl)C21 (stereo not given) |  | 6.31 | 6.5 | > 79 | > 79 | > 79 | > 79 | > 79 | > 79 | > 79 | > 79 | > 79 | > 79 | > 79 | > 79 |  | 3.42 | 3.73 | > 79 | > 79
